We go through one compound from patent US20090142304A1, “Composition for Improving Intestinal Flora” (priority 2005, published 2009).

Format in all cases: in vivo
The test system of test [1] is Lactobacillus sp. Kind of test: Growth effect on lactic acid bacteria in human feces by intake of Meioligo P (Example 2). The source says:
(§1) Quantitative determination of intestinal lactic acid bacteria counts can be carried out by a conventional method. For example, the lactic acid bacteria counts can be quantitatively determined according to the Mitsuoka's method (Mitsuoka Tomotari, “Chounaikin no Sekai (The World of Intestinal Bacteria)”, Sobunsha Co., Ltd., Tokyo, p. 53-65) by sampling feces of a tested subject. The intestinal Bifidobacterium count can be similarly quantitatively determined.
(§2) As a sample composition, Meioligo P (Trade Name) (Meiji Seika Kaisha), which was a composition containing 35% of 1-kestose, 55% of nystose and 10% of fructo-furanosyl nystose, was used.
(§3) In a test, each 3 g per day of the sample composition (1.05 g based on the weight of 1-kestose) was fed orally for 2 months to 7 healthy female test subjects in the age range of 19 to 41 years. Samples of the feces of the respective subjects were then collected just before the start of intake (week 0), 2 weeks after the start of intake (week 2) and 2 weeks after the end of intake (week 4), and the lactic acid bacteria count and the Bifidobacterium count in the samples were quantitatively determined similarly to Example 1.
(§4) The changes of the lactic acid bacteria count and the Bifidobacterium count in the feces by the intake of 1-kestose with respect to the 7 subjects are shown in the Figures.

Test [2] has as its system Bifidobacterium. The test is described as follows: Growth effect on Bifidobacterium in human feces by intake of 1-kestose (Example 1). As to conditions: 10 g per day orally for 2 months, 5 mild diabetes subjects.
Excerpt: as §1
(§5) A sample composition containing 99.4% of 1-kestose, 0.15% of acesulfame potassium, 0.32% of sucralose and 0.13% of Sweetness Enhancer ME-2208T (Trade Name) (Firmenich SA) was used (all by % by weight).
In a test, each 10 g per day of the sample composition was fed orally for 2 months to 7 male and female test subjects with mild diabetes in the age range of 20 to 70 years. Samples of the feces of the respective subjects were collected just before the start of intake (month 0), 2 months after the start of intake (month 2) and 1 month after the end of intake (month 3), and the lactic acid bacteria counts in the samples were quantitatively determined by the method of Mitsuoka (Mitsuoka Tomotari “Chounaikin no Sekai (The World of Intestinal Bacteria)” Sobunsha Co., Ltd., Tokyo, p. 53-65). Similarly, the Bifidobacterium counts in the samples were quantitatively determined. […]

The test system of test [3] is lactic acid bacteria belonging to genus Lactobacillus. Kind of test: Growth effect on lactic acid bacteria in human intestine by intake of 1-kestose (Example 1, fecal count, Mitsuoka method).
Excerpt: as §1, §5
In a test, each 10 g per day of the sample composition was fed orally for 2 months to 7 male and female test subjects with mild diabetes in the age range of 20 to 70 years. Samples of the feces of the respective subjects were collected just before the start of intake (month 0), 2 months after the start of intake (month 2) and 1 month after the end of intake (month 3), and the lactic acid bacteria counts in the samples were quantitatively determined by the method of Mitsuoka (Mitsuoka Tomotari “Chounaikin no Sekai (The World of Intestinal Bacteria)” Sobunsha Co., Ltd., Tokyo, p. 53-65). Similarly, the Bifidobacterium counts in the samples were quantitatively determined.
By 5 out of the subjects 7, lactic acid bacteria belonging to genus Lactobacillus were detected at 10^6 CFU/g-feces or higher, and the changes of the lactic acid bacteria count and the Bifidobacterium count by the intake of 1-kestose with respect to the 5 subjects are shown in the Figures.

For test [4], the system named is Bifidobacterium. The test is described as follows: Growth effect on Bifidobacterium in human feces by intake of Meioligo P (Example 2). The following applies: fed as Meioligo P 3 g per day (1.05 g 1-kestose).
Excerpt: as §1, §2, §3, §4

The structures appear in SMILES notation.

Take `OC[C@H]1O[C@@](CO)(OC[C@@]2(O[C@H]3O[C@H](CO)[C@@H](O)[C@H](O)[C@H]3O)O[C@H](CO)[C@@H](O)[C@@H]2O)[C@@H](O)[C@@H]1O` [1-kestose]: the “increase of mean Lactobacillus sp. count, after vs before the intake” value in test [1] (fed as Meioligo P 3 g per day (1.05 g 1-kestose), 7 healthy females) is “about 20 fold”; in test [3] (10 g per day orally for 2 months, 5 mild diabetes subjects), “about 10 fold”. The “increase of Lactobacillus sp. count in each of the 4 subjects with increase” value in test [1] (fed as Meioligo P 3 g per day (1.05 g 1-kestose), the 4 subjects with increase) is given as ≥ 10 fold. The “subjects in whom the count of Lactobacillus sp. was increased by intake” value is 4 out of 7 in test [1] (fed as Meioligo P (35% 1-kestose, 55% nystose, 10% fructo-furanosyl nystose), 3 g per day (1.05 g 1-kestose) orally, 7 healthy female subjects) and 4 out of the 5 in test [3] (sample composition 99.4% 1-kestose, 10 g per day orally for 2 months, subjects with mild diabetes with Lactobacillus at 10^6 CFU/g-feces or higher (5 of 7)). Moreover, the figures for the “increase of mean Bifidobacterium count, after vs before the intake” value in test [2] and in test [4] (7 healthy females) were “about 7 fold” and “about 2 fold”, respectively. Moreover, the “subjects in whom the Bifidobacterium count was increased” value in test [2] (sample composition 99.4% 1-kestose) is recorded as “all of 5”; in test [4] (7 healthy female subjects), 6 out of the 7. In addition, in test [3] (human whose lactic acid bacteria count in the feces is ≧10^6 CFU/g or higher (Example 1)), the “effect of the composition containing 1-kestose by lactic acid bacteria count in the feces” value is reported as “stronger”.
